Format in all cases: cell-based
In experiment [1] the target is T1, human TLR8 (Homo sapiens, UniProt Q9NR97).
T1 construct: host or cells: HEK-Blue cells
T1 sequence (Q9NR97 27-1041): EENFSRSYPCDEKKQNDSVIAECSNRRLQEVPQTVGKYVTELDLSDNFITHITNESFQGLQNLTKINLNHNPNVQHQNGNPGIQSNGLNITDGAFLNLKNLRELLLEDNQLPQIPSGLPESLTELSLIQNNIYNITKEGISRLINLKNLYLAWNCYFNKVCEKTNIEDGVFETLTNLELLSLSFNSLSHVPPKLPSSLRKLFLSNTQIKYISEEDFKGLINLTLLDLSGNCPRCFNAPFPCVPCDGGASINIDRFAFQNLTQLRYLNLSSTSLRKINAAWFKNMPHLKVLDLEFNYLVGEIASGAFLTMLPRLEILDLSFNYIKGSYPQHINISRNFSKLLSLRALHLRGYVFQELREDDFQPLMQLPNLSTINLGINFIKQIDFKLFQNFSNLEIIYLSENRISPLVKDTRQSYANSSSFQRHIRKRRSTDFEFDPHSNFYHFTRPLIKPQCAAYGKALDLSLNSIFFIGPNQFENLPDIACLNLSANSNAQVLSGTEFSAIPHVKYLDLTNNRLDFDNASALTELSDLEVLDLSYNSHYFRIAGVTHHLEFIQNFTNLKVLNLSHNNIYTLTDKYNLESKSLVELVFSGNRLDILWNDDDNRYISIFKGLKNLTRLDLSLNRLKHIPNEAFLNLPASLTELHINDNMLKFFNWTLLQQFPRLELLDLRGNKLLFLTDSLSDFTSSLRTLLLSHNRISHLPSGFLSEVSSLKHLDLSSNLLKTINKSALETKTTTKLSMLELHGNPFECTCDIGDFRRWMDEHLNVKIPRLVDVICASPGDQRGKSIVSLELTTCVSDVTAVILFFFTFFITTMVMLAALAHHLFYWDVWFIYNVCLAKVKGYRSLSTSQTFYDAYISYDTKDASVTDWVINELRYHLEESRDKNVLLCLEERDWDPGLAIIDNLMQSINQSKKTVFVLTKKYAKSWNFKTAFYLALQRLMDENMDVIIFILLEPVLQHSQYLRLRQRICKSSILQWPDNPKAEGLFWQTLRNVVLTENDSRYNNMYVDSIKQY
The experiment can be described thus: TLR8 inhibition reporter assay (HEK-Blue cells, SEAP reporter, R848 stimulation). The following applies: HEK-Blue cells overexpressing human TLR8, SEAP reporter, R848 15.9 μM; read-out: TLR8 IC50. The method, boiled down:
(§1)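 Human TLR7/8/9 HEK-Blue reporter lines; dose range 0.05 nM–50 μM; 30 min RT preincubation; stimulus gardiquimod 7.5 μM / R848 15.9 μM / ODN2006 5 nM respectively; 22 h, 37 °C; SEAP detected colorimetrically.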

Experiment [2] deals with T2, human TLR9 (Homo sapiens, UniProt Q9NR96).
T2 construct: host or cells: HEK-Blue cells
T2 sequence (Q9NR96 26-1032): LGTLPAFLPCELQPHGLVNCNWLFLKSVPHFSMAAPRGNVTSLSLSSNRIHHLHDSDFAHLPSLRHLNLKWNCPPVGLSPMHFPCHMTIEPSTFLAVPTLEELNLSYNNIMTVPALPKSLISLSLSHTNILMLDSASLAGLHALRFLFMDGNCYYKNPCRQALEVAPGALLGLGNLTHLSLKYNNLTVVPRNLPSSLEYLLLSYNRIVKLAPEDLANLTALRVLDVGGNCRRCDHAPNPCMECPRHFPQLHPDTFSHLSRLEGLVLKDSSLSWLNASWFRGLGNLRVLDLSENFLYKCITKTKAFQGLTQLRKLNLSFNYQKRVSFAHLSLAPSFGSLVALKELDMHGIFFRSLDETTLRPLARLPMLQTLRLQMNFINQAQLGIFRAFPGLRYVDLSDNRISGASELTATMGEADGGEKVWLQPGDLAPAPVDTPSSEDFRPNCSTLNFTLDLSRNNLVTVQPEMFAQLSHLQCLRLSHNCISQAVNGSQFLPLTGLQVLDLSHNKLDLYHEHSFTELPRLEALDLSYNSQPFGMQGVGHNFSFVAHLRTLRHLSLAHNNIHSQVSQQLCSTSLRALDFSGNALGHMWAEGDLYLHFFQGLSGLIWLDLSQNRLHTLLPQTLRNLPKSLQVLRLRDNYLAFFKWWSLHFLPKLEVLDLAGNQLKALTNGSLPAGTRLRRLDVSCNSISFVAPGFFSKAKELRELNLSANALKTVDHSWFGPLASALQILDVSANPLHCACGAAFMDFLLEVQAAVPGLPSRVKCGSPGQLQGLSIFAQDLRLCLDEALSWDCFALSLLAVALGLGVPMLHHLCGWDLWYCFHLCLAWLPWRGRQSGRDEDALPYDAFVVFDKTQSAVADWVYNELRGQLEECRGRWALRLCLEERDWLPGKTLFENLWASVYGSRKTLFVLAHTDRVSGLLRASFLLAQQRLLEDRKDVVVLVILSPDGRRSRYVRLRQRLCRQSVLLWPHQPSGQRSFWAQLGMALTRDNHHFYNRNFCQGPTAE
The experiment in a line: TLR9 inhibition reporter assay (HEK-Blue cells, SEAP reporter, ODN2006 stimulation). The following applies: HEK-Blue cells overexpressing human TLR9, SEAP reporter, ODN2006 5 nM. The procedure, abridged: as §1
Background: A reporter such as luciferase makes a cellular process visible.

Experiment [3] concerns the target T3, human TLR7 (Homo sapiens, UniProt Q9NYK1).
T3 construct: host or cells: HEK-Blue cells
T3 sequence (Q9NYK1 27-1049): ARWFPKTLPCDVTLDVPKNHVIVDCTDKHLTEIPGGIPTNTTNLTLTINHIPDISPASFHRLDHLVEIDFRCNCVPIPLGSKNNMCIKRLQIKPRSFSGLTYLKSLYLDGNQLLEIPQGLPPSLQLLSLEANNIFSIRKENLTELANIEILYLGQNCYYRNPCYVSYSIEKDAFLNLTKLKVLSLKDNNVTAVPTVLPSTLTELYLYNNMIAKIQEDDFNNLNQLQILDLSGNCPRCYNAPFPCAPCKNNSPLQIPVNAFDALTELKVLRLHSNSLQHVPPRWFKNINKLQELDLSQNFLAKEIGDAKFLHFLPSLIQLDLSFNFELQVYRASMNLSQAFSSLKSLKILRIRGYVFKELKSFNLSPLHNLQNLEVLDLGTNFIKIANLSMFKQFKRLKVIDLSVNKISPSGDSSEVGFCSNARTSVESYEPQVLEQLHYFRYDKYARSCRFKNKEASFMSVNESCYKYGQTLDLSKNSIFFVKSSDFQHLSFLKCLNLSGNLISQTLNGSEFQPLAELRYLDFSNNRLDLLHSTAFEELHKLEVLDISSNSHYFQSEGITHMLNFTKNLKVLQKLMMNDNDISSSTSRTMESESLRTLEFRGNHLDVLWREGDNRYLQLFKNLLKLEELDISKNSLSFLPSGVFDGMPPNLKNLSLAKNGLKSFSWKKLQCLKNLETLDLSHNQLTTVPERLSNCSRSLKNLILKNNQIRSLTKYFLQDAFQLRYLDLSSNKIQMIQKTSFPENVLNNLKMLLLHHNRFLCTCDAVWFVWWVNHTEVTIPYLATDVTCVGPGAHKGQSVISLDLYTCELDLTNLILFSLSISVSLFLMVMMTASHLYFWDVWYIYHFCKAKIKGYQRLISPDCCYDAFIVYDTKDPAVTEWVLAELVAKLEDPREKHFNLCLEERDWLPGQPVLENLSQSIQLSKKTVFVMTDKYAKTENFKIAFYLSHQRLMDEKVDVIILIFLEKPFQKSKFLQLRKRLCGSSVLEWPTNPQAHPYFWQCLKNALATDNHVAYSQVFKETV
The experiment can be described thus: TLR7 inhibition reporter assay (HEK-Blue cells, SEAP reporter, gardiquimod stimulation). The following applies: HEK-Blue cells overexpressing human TLR7, SEAP reporter, gardiquimod 7.5 μM; read-out: TLR7 IC50. The method, boiled down:
as §1

Molecules are shown by their SMILES. A value given as a limit tells only on which side of the number the result lay.

As a reminder, the IC50 is the midpoint of a concentration-inhibition curve. In the case of `Cc1cc2ncnn2cc1-c1[nH]c2sc(C3CCC(NC4CCOCC4)CC3)nc2c1C(C)C` (single isomer, unassigned) [Example 161, N-(4-(6-isopropyl-5-(7-methyl-[1,2,4]triazolo[1,5-a]pyridin-6-yl)-4H-pyrrolo[3,2-d]thiazol-2-yl)cyclohexyl) tetrahydro-2H-pyran-4-amine], the IC50 in experiment [1] stood at 14.7 nM; in experiment [2] it was 17000 nM; in experiment [3] it was 18.1 nM.
For the compound `COc1cc(-c2[nH]c3sc(C4CCC(N(C)CC(=O)N(C)C)CC4)nc3c2C(C)C)cn2ncnc12` (single isomer, unassigned) [Example 162, 2-((4-(6-isopropyl-5-(8-methoxy-[1,2,4]triazolo[1,5-a]pyridin-6-yl)-4H-pyrrolo[3,2-d]thiazol-2-yl)cyclohexyl)(methyl)amino)-N,N-dimethylacetamide], the results for the IC50 in experiment [1], in experiment [2] and in experiment [3] were 15.7 nM, 20300 nM and 2.6 nM, respectively.
Taken in the same sequence, the figures for `COc1cc(-c2[nH]c3sc(C4CCC(N(C)CC(=O)N(C)C)CC4)nc3c2C(C)C)cn2ncnc12` (single isomer, unassigned) [Example 163, 2-((4-(6-isopropyl-5-(8-methoxy-[1,2,4]triazolo[1,5-a]pyridin-6-yl)-4H-pyrrolo[3,2-d]thiazol-2-yl)cyclohexyl)(methyl)amino)-N,N-dimethylacetamide] were 20.6 nM, 9400 nM and 1.59 nM.
Taken in the same sequence, the figures for `COc1cc(-c2[nH]c3sc(C4CCC(N(C)CCS(C)(=O)=O)CC4)nc3c2C(C)C)cn2ncnc12` (single isomer, unassigned) [Example 164, 4-(6-isopropyl-5-(8-methoxy-[1,2,4]triazolo[1,5-a]pyridin-6-yl)-4H-pyrrolo[3,2-d]thiazol-2-yl)-N-methyl-N-(2-(methylsulfonyl)ethyl) cyclohexan-1-amine] were 4.43 nM, 15600 nM and 1.32 nM.
Taken in the same sequence, the figures for `COc1cc(-c2[nH]c3sc(C4CCC(N(C)CCS(C)(=O)=O)CC4)nc3c2C(C)C)cn2ncnc12` (single isomer, unassigned) [Example 165, 4-(6-isopropyl-5-(8-methoxy-[1,2,4]triazolo[1,5-a]pyridin-6-yl)-4H-pyrrolo[3,2-d]thiazol-2-yl)-N-methyl-N-(2-(methylsulfonyl)ethyl) cyclohexan-1-amine] were 14.4 nM, 22800 nM and 1.61 nM.
Take `COc1cc(-c2[nH]c3sc(C4CCC(NC5CCN(C(C)C)CC5)CC4)nc3c2C(C)C)cn2ncnc12` (single isomer, unassigned) [Example 166, 1-isopropyl-N-(4-(6-isopropyl-5-(8-methoxy-[1,2,4]triazolo[1,5-a]pyridin-6-yl)-4H-pyrrolo[3,2-d]thiazol-2-yl)cyclohexyl)piperidin-4-amine]: the IC50 was found to be 0.87 nM in experiment [1], 383 nM in experiment [2] and 0.88 nM in experiment [3].
On the same counts, the results for `COc1cc(-c2[nH]c3sc(C4CCC(NC5CCN(C(C)C)CC5)CC4)nc3c2C(C)C)cn2ncnc12` (single isomer, unassigned) [Example 167, 1-isopropyl-N-(4-(6-isopropyl-5-(8-methoxy-[1,2,4]triazolo[1,5-a]pyridin-6-yl)-4H-pyrrolo[3,2-d]thiazol-2-yl)cyclohexyl)piperidin-4-amine] are 34.8 nM, 1710 nM and 7.37 nM.
`COc1cc(-c2[nH]c3sc(C4CCC(NC56CC(C5)C6)CC4)nc3c2C(C)C)cn2ncnc12` (single isomer, unassigned) [Example 168, N-(4-(6-isopropyl-5-(8-methoxy-[1,2,4]triazolo[1,5-a]pyridin-6-yl)-4H-pyrrolo[3,2-d]thiazol-2-yl)cyclohexyl)bicyclo[1.1.1]pentan-1-amine]: the IC50 in experiment [1] is 33.9 nM; in experiment [2], over 50000 nM; in experiment [3] it was 6.58 nM.
On the same counts, the results for `COc1cc(-c2[nH]c3sc(C4CCC(NC56CC(C5)C6)CC4)nc3c2C(C)C)cn2ncnc12` (single isomer, unassigned) [Example 169, N-(4-(6-isopropyl-5-(8-methoxy-[1,2,4]triazolo[1,5-a]pyridin-6-yl)-4H-pyrrolo[3,2-d]thiazol-2-yl)cyclohexyl)bicyclo[1.1.1]pentan-1-amine] are 17 nM, 9810 nM and 4.17 nM.
On the same counts, the results for `CNCCNC1CCC(c2nc3c(C(C)C)c(-c4cc(OC)c5ncnn5c4)[nH]c3s2)CC1` (single isomer, unassigned) [Example 170, N1-(4-(6-isopropyl-5-(8-methoxy-[1,2,4]triazolo[1,5-a]pyridin-6-yl)-4H-pyrrolo[3,2-d]thiazol-2-yl)cyclohexyl)-N2-methylethane-1,2-diamine] are 4.65 nM, 1760 nM and 2.38 nM.

Source of the values: patent US20230139171A1 (SITA Information Networking Computing UK Limited, priority 2019, published 2023).
